Patent US20140255527A1, “Expression Promoting Agent For Clock Gene And Hyaluronic Acid Synthase Gene” (SHISEIDO COMPANY, LTD., priority 2011, published 2014)

Tests used:
Type in all cases: cell-based
Settings in all cases: medical agent for stimulation in cultured human dermal fibroblast system; no data shown
[1] = tested on: HAS2 hyaluronic acid synthase gene; assay: Expression amount of HAS2 hyaluronic acid synthase gene in cultured human dermal fibroblast (RT-PCR, relative to RPLP0)
Procedure: (§1) Moreover, as the clock gene, an amount of expression of a Bmal gene (typified by Bmal1) or a Period gene (typified by Period1) in connection with the core system was measured. As a hyaluronic acid synthase gene, an amount of expression of hyaluronic acid synthase gene 2 (HAS2) was measured. […] In experiments described below, a gene expression amount after 16 hours or 2 hours from the stimulation was used as an index, respectively, and an effect on promotion of expression of the Bmal gene, the Period gene and the HAS2 gene being a test substance was evaluated.
(§2) As a cultured human dermal fibroblast, a commercially available normal human dermal fibroblast derived from adult skin (Cell Application, Inc) was purchased, and used for an experiment. Seeding was made in a DMEM culture medium prepared by adding 10% FBS, 20 mM HEPES, Glutamax and an antibacterial agent, and culture was made at 37° C. under 5% CO2. […] From the cell taken therefrom, RNA was extracted using a commercially available RNA extraction kit, and an expression amount of a clock gene (Period1, Bmal1) and a hyaluronic acid synthase gene (HAS2) was measured using a commercially available PCR primer (Perfect Real Time Primer, TAKARA BIO INC.) according to an RT-PCR method. […]

Period1 clock gene = assay: Expression amount of Period1 clock gene in cultured human dermal fibroblast (RT-PCR, relative to RPLP0)
Procedure: as §1, §2

Bmal1 clock gene = assay: Expression amount of Bmal1 clock gene in cultured human dermal fibroblast (RT-PCR, relative to RPLP0)
Procedure: as §1, §2

Row | SMILES | time of peaked expression amount of HAS2 after stimulation (circadian rhythm) [1] | time of peaked expression amount of Period1 after stimulation (circadian rhythm) (Period1 clock gene) [h] | time of peaked expression amount of Bmal1 after stimulation (circadian rhythm) (Bmal1 clock gene)
1 | C[C@]12CCC(=O)C=C1CC[C@@H]1[C@@H]2[C@@H](O)C[C@@]2(C)[C@H]1CC[C@]2(O)C(=O)CO [cortisol] | approximately 16 hours | 2 | approximately 16 hours
2 | C=C[C@@]1(C)CC(=O)[C@]2(O)[C@@]3(C)[C@@H](O)CCC(C)(C)[C@@H]3[C@H](O)[C@H](OC(C)=O)[C@@]2(C)O1 [forskolin] | approximately 16 hours | 2 | approximately 16 hours
